Test results reported in publication PMC3628601, “Novel control of lactate dehydrogenase from the freeze tolerant wood frog: role of posttranslational modifications” (PeerJ, 2013).

Assays:
Type in all cases: biochemical, Lithobates sylvaticus
[1] = test system: T1, muscle LDH, dehydrated (dehydrated LDH); experiment: NADH production at […] nm, reverse reaction; conditions: pH 8, 22 °C, 50 mM Tris
T1 construct: gene LDHA

[2] = test system: T2, muscle LDH, control (control LDH); experiment: NADH production at […] nm, reverse reaction; conditions: pH 8, 22 °C, 50 mM Tris
T2 construct: gene LDHA

[3] = test system: T2, muscle LDH, control (control LDH); experiment: NADH consumption at […] nm, forward reaction; conditions: pH 7, 22 °C, 50 mM Tris, saturating NADH (0.15 mM)
[4] = test system: T1, muscle LDH, dehydrated (dehydrated LDH); experiment: NADH consumption at […] nm, forward reaction; conditions: pH 7, 22 °C, 50 mM Tris, saturating NADH (0.15 mM)
[5] = test system: T1, muscle LDH, dehydrated (dehydrated LDH); experiment: NADH absorbance at […] nm, forward reaction; conditions: pH 7.0, 22 °C, 50 mM Tris, saturating NADH (0.15 mM); inhibition by excess substrate
[6] = test system: T2, muscle LDH, control (control LDH); experiment: NADH absorbance at […] nm, forward reaction; conditions: pH 7.0, 22 °C, 50 mM Tris, saturating NADH (0.15 mM); inhibition by excess substrate

C[C@H](O)C(=O)O [L-lactate]
Km ([1]; saturating NAD (1 mM)): 5600 ± 500 µM | Km ([2]; saturating NAD (1 mM)): 11000 ± 640 µM

NC(=O)c1ccc[n+]([C@@H]2O[C@H](COP(=O)(O)OP(=O)(O)OC[C@H]3O[C@@H](n4cnc5c(N)ncnc54)[C@H](O)[C@@H]3O)[C@@H](O)[C@H]2O)c1 [NAD]
Km ([1]; saturating L-lactate (22.5 mM)): 640 ± 40 µM | Km ([2]; saturating L-lactate (22.5 mM)): 1380 ± 50 µM

CC(=O)C(=O)O [pyruvate]
Km [3]: 160 ± 10 µM | Km [4]: 130 ± 10 µM | Dehydrated [5]: 8.26 ± 0.76 mM | Control [6]: 7.93 ± 0.34 mM
